Test results: ChEMBL document CHEMBL4627267, “A novel series of cysteine-dependent, allosteric inverse agonists of the nuclear receptor RORγt” (Bioorg Med Chem Lett, 2020)
Activity calls are given as the source filed them. The calls are words filed in the database; no cut-off is given here.

Columns and labels:
Mus musculus [1] = experiment: Antiarthritic activity in collagen/complete freund's adjuvant-induced DBA/1 mouse model of arthritis assessed as reduction in paw thickness at 3 mg/kg/day, po administered via gavage starting from 21 day post collagen/CFA challenge and measured up to 42 days; format: functional, organism-based
[2] = biological target: T1, Nuclear receptor ROR-alpha (Homo sapiens) (UniProt P35398); experiment: Inverse agonist activity at human full-length RORalpha expressed in Jurkat cells co-transfected with 5 copies of ROR response element after 18 hrs by luciferase based reporter gene assay; format: cell-based
T1 sequence (whole entry): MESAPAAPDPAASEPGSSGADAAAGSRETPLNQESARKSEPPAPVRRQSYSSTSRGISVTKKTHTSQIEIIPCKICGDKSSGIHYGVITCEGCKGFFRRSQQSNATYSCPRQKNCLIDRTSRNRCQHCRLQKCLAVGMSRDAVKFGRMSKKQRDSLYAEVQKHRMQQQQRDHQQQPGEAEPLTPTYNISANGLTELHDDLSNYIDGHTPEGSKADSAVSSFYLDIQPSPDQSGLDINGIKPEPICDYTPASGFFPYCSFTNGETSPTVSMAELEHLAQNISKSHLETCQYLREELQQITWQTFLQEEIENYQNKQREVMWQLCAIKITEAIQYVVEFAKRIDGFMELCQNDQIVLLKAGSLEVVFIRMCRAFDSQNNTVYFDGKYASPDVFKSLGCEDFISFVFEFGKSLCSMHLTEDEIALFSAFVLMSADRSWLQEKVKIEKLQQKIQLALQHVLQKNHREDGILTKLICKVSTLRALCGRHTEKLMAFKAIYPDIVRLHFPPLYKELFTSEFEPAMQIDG

[3] = biological target: T2, Nuclear receptor ROR-beta (Homo sapiens) (UniProt Q92753); experiment: Inverse agonist activity at human full-length RORbeta expressed in Jurkat cells co-transfected with 5 copies of ROR response element after 18 hrs by luciferase based reporter gene assay; format: cell-based
T2 sequence (whole entry): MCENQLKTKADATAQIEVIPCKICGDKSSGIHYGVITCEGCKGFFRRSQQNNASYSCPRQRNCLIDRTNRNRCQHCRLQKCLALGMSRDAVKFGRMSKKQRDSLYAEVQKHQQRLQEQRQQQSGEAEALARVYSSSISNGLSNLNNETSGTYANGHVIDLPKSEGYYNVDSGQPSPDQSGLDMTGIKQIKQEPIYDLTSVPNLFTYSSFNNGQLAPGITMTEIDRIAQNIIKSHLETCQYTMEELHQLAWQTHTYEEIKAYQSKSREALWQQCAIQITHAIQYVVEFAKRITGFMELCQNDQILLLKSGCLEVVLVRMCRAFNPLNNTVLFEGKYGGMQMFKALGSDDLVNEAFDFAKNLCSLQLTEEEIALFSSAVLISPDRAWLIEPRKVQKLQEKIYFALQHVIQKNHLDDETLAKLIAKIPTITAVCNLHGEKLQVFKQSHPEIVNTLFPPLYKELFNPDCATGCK

[4] = Cytotoxicity against human CD4-positive T cells assessed as reduction in cell viability at 100 nM; format: cell-based; settings: 0.1 µM
Mus musculus [5] = experiment: Antiarthritic activity in collagen/complete freund's adjuvant-induced DBA/1 mouse model of arthritis assessed as reduction in clinical score at 3 mg/kg/day, po administered via gavage starting from 21 day post collagen/CFA challenge and measured up to 42 days; format: functional, organism-based

Activity [2]	Activity [3]	SMILES	Activity (Mus musculus [1])	Activity [4]	Activity (Mus musculus [5])
inactive	inactive	Cc1cc(-c2nc(-c3ccc(F)cc3)c3c(n2)[C@]2(C)C=C(C#N)C(=O)[C@H](C)[C@H]2CC3)ccn1	Active	10 to 15%	Active
inactive	inactive	CCC[C@H]1C(=O)C(C#N)=C[C@@]2(C)c3nc(-c4ccnc(C5CC5)c4)nc(-c4ccccc4F)c3CC[C@H]12			
